US10508118B2, “Pyrimidopyrrole compounds, method for preparing the same, pharmaceutical compositions comprising the same and uses thereof” (Xiamen University, priority 2015, dated 2019)
Read-outs that look alike come from different tables or passages of the source.

Columns and labels:
Format in all cases: cell-based
wild type BaF3 = assay: Growth inhibition of wild type BaF3 cells (broad-spectrum toxicity); conditions: Mus musculus, BaF3, 48 h, MTS
Procedure: (§1) The activity of compounds against ALK kinase was evaluated by inhibiting the growth of cellular ALK kinase EML4-ALK-BaF3, EML4-ALK (L1196M)-BaF3, NPM-ALK-BaF3, and wild type BaF3 (Proc. Natl. Acad. Sci. USA., 2006, 103, 3153-8.) The growth of cellular ALK kinase EML4-ALK-BaF3, EML4-ALK(L1196M)-BaF3, and NPM-ALK-BaF3 depends on their kinase activity. If compounds can inhibit the activity of ALK kinase or the activity of ALK signaling pathway, they can inhibit the growth of ALK transformed Ba/F3 cells. […] The broad-spectrum toxicity of compounds can be evaluated by determining the effect of the compounds on the growth of wild type BaF3 cells.
(§2) 1) Medium: DMEM (Dulbecco's modified eagle medium) or RPMI1640 (containing 10% fetal bovine serum, 100 μg/mL ampicillin, 100 μg/mL streptomycin).)
(§3) Reagents: MTS solution (2 mg/mL MTS (3-(4,5-dimethylthiazol-2-yl)-5-(3-carboxymethoxyphenyl)-2-(4-sulfophenyl)-2H-tetrazolium, inner salt); 100 μg/mL PES ([…])).
(§4) 3) Test of compound: Transformed Ba/F3 cells (EML4-ALK-BaF3, EML4-ALK(L1196M)-BaF3, NPM-ALK-BaF3) (2×10^4/well) were distributed into 96-well plates, with volume of cell sap of 90 μL, 10 μL of compounds in gradient concentration (the highest concentration 10 was μM, followed by 1/3 step by step dilution, a total of 8 concentrations were set, the system contained 0.1% DMSO (dimethyl sulfoxide)). The cell plates mixed with compounds were cultured in a cell incubator (37° C.; 5% CO2) for 48 hours, and the added 20 μL of MTS reaction solution, mixed and incubated in cell incubator (37° C.; 5% CO2) for 1-4 hours. The OD value at a wavelength of 490 nm was measured using eliasa (VARIOSKAN FLASH, Thermo). Three parallels were set up for each group, with a final concentration of 0.1% DMSO as negative control, and with medium without cells and compounds as blank control. The inhibition rate of cell growth was calculated by the following formula: Cell inhibition rate %=1−(OD experimental group−OD blank group)/(OD negative group−OD blank group)*100%
(§5) 4) Calculation of IC50 value: the semi inhibitory concentration of the compound acting on the cells was calculated using GradPad Prism 5 software according to the cell inhibitory rate measured.

EML4-ALK (L1196M)-BaF3 = target: T1, EML4-ALK (L1196M)-BaF3 (Homo sapiens, UniProt Q9UM73, L1196M); assay: Growth inhibition of EML4-ALK (L1196M) transformed BaF3 cells (MTS); conditions: 48 hours
T1 construct: expressed in transfected cells; host or cells: Ba/F3 cells; the other entry of the earlier key: EML4 (Q9HC35, Echinoderm microtubule-associated protein-like 4)
Procedure: (§6) If compounds can inhibit the activity of ALK kinase or the activity of ALK signaling pathway, they can inhibit the growth of ALK transformed Ba/F3 cells. […] The broad-spectrum toxicity of compounds can be evaluated by determining the effect of the compounds on the growth of wild type BaF3 cells.
as §2, §3
as §4, with “control.” for “control. The inhibition rate of cell growth was calculated by the following formula: Cell inhibition rate %=1−(OD experimental group−OD blank group)/(OD negative group−OD blank group)*100%”
as §5

EML4-ALK-BaF3 = target: T2, EML4-ALK-BaF3 (Homo sapiens, UniProt Q9UM73); assay: Growth inhibition of EML4-ALK transformed BaF3 cells (MTS); conditions: for IC50: EML4-ALK-BaF3 cells, 48 hours, MTS
T2 construct: expressed in transfected cells; host or cells: Ba/F3 cells; the other entry of the earlier key: EML4 (Q9HC35, Echinoderm microtubule-associated protein-like 4)
Procedure: as §6, §2, §3
as §4, with “control.” for “control. The inhibition rate of cell growth was calculated by the following formula: Cell inhibition rate %=1−(OD experimental group−OD blank group)/(OD negative group−OD blank group)*100%”
as §5

NPM-ALK-BaF3 = target: T3, NPM-ALK-BaF3 (Homo sapiens, UniProt Q9UM73); assay: Growth inhibition of NPM-ALK transformed BaF3 cells (MTS); conditions: 48 hours
T3 construct: expressed in transfected cells; host or cells: Ba/F3 cells; the other entry of the earlier key: NPM1 (P06748, Nucleophosmin)
Procedure: as §1, §2, §3, §4, §5

[1] = Table 12, read-out: L1196M (IC50 nM)
[2] = Table 11, read-out: EML4-ALK (L1196M) (IC50 nM)

IC50 (EML4-ALK (L1196M)-BaF3; [1]) [nM] | IC50 (EML4-ALK-BaF3; Table 12) [nM] | IC50 (NPM-ALK-BaF3; Table 12) [nM] | IC50 (EML4-ALK (L1196M)-BaF3; [2]) [nM] | IC50 (EML4-ALK-BaF3; Table 11) [nM] | IC50 (NPM-ALK-BaF3; Table 11) [nM] | targeting selectivity (EML4-ALK-BaF3; ratio of IC50 between wild-type BaF3 and ALK transformed BaF3 cells) | SMILES | IC50 (wild type BaF3; Table 12) [nM] | IC50 (wild type BaF3; Table 11) [nM]
~5890 | 3530 | 5120 |  |  |  |  | COc1cc(N2CCN(C)CC2)ccc1Nc1nc(Nc2ccccc2S(C)(=O)=O)c2c(ccn2C)n1 [IIC-1] | ~8670 | 
 |  |  | ~2560 | 1810 | ~2600 |  | COC(=O)c1cccc(Nc2nc(Nc3ccc(N4CCC(N5CCN(C)CC5)CC4)cc3OC)nc3cc[nH]c23)c1 [II-2] |  | ~3030
1810 | 1970 | 4470 |  |  |  |  | COC(=O)c1cccc(Nc2nc(Nc3ccc(N4CCC(O)CC4)cc3)nc3ccn(C)c23)c1 [IIH-2] | 2830 | 
 |  |  | ~2630 | 1490 | 1640 |  | COC(=O)c1cccc(Nc2nc(Nc3ccc(N4CCN(C)CC4)cc3OC)nc3cc[nH]c23)c1 [II-1] |  | ~2710
 |  |  | > 10000 | > 10000 | > 10000 |  | NS(=O)(=O)c1ccc(Nc2nc(NC3CC3)c3[nH]ccc3n2)cc1 [IS-4] |  | > 10000
 |  |  | 5030 | > 10000 | > 10000 |  | COc1cc(N2CCC(N3CCN(C)CC3)CC2)ccc1Nc1nc(NC2CC2)c2[nH]ccc2n1 [IS-2] |  | > 10000
1530 | 1140 | 848 |  |  |  |  | CC(C)S(=O)(=O)c1ccccc1CNc1nc(Nc2ccc(N3CCN(C)CC3)cc2)nc2ccn(C)c12 [IIL-5] | ~2760 | 
 |  |  | 4340 | 4550 | 8150 |  | COC(=O)c1ccccc1Oc1nc(Nc2ccc(N3CCC(O)CC3)cc2)nc2cc[nH]c12 [IV-3] |  | 8920
 |  |  | ~2510 | ~2880 | ~2850 |  | COC(=O)c1ccccc1Sc1nc(Nc2ccc(N3CCC(N4CCCC4)CC3)cc2OC)nc2cc[nH]c12 [IU-5] |  | ~7720
 |  |  | > 10000 | > 10000 | > 10000 |  | COC(=O)c1ccccc1Sc1nc(Nc2ccc(N3CCN(C)CC3)cc2OC)nc2cc[nH]c12 [IU-1] |  | > 10000
 |  |  | 2000 | ~2570 | ~7720 |  | COc1cc(N2CCC(N3CCN(C)CC3)CC2)ccc1Nc1nc(NCc2ccccc2SC)c2[nH]ccc2n1 [IL-2] |  | ~7840
544 | ~865 | 627 |  |  |  |  | COc1cc(N2CCN(C)CC2)ccc1Nc1nc(NCc2ccccc2SC(C)C)c2c(ccn2C)n1 [IIJ-1] | ~911 | 
3950 | ~1330 | 4210 |  |  |  |  | COC(=O)c1ccccc1Nc1nc(Nc2ccc(C(=O)N3CCC(N4CCN(C)CC4)CC3)cc2OC)nc2ccn(C)c12 [IIG-4] | 4870 | 
 |  |  | 2670 | 4580 | 4900 |  | COC(=O)c1ccccc1Sc1nc(Nc2ccc(N3CCC(N4CCN(C)CC4)CC3)cc2OC)nc2cc[nH]c12 [IU-2] |  | ~8340
 |  |  | > 10000 | > 10000 | > 10000 |  | COc1cc(N2CCC(N3CCN(C)CC3)CC2)ccc1Nc1nc(NCc2ccccc2S(C)(=O)=O)c2[nH]ccc2n1 [IN-2] |  | > 10000
 |  |  | 2030 | 1170 | ~2850 |  | CC(C)S(=O)(=O)c1ccccc1Nc1nc(Nc2ccc(N3CCN(C)CC3)cc2)nc2cc[nH]c12 [ID-2] |  | ~8310
> 10000 | > 10000 | > 10000 |  |  |  |  | CSc1ccccc1CNc1nc(Nc2ccc(N3CCC(O)CC3)cc2)nc2ccn(C)c12 [III-2] | > 10000 | 
> 10000 | > 10000 | > 10000 |  |  |  |  | CCOc1cc(N2CCC(O)CC2)ccc1Nc1nc(Nc2ccccc2S(C)(=O)=O)c2c(ccn2C)n1 [IIC-6] | > 10000 | 
 |  |  | > 10000 | > 10000 | > 10000 |  | CNc1nc(Nc2ccc(C(=O)N3CCN(C)CC3)cc2OC)nc2cc[nH]c12 [IQ-6] |  | > 10000

The next lines start with the molecule.

SMILES | IC50 (EML4-ALK (L1196M)-BaF3; [1]) [nM] | IC50 (EML4-ALK-BaF3; Table 12) [nM] | IC50 (NPM-ALK-BaF3; Table 12) [nM] | IC50 (EML4-ALK (L1196M)-BaF3; [2]) [nM] | IC50 (EML4-ALK-BaF3; Table 11) [nM] | IC50 (NPM-ALK-BaF3; Table 11) [nM] | targeting selectivity (EML4-ALK-BaF3; ratio of IC50 between wild-type BaF3 and ALK transformed BaF3 cells) | IC50 (wild type BaF3; Table 12) [nM] | IC50 (wild type BaF3; Table 11) [nM]
COC(=O)c1ccccc1Nc1nc(Nc2ccc(N3CCC(O)CC3)cc2OC(C)C)nc2cc[nH]c12 [IG-9] |  |  |  | > 10000 | > 10000 | > 10000 |  |  | > 10000
CC(C)S(=O)(=O)c1ccccc1Nc1nc(Nc2ccc(S(N)(=O)=O)cc2)nc2ccn(C)c12 [IID-4] | ~6440 | ~3290 | ~6350 |  |  |  |  | 7540 | 
COC(=O)c1ccccc1Nc1nc(Nc2ccc(N3CCOCC3)cc2OC)nc2cc[nH]c12 [IG-16] |  |  |  | 1390 | 1370 | 1740 |  |  | 2350
COc1cc(N2CCC(N3CCN(C)CC3)CC2)ccc1Nc1nc(NCc2ccccc2S(C)(=O)=O)c2c(ccn2C)n1 [IIK-2] | ~2950 | ~3150 | ~3420 |  |  |  |  | ~2950 | 
CC(C)S(=O)(=O)c1ccccc1Nc1nc(Nc2ccc(N3CCC(O)CC3)cc2)nc2cc[nH]c12 [ID-4] |  |  |  | 6150 | 2860 | ~8930 |  |  | > 10000
Cn1ccc2nc(Nc3ccc(N4CCC(O)CC4)cc3)nc(NCc3ccccc3S(C)(=O)=O)c21 [IIK-3] | > 10000 | > 10000 | > 10000 |  |  |  |  | > 10000 | 
Cc1cc(Nc2nc(Nc3ccccc3S(=O)(=O)C(C)C)c3[nH]ccc3n2)c(OC(C)C)cc1C1CCN(C)CC1 [ID-6] |  |  |  | ~2650 | 1510 | 1020 |  |  | ~2840
COc1cc(N2CCN(C)CC2)ccc1Nc1nc(Nc2ccccc2SC)c2[nH]ccc2n1 [IA-1] |  |  |  | 1800 | 1370 | 703 |  |  | ~2790
COC(=O)c1ccccc1Sc1nc(Nc2ccc(S(N)(=O)=O)cc2)nc2cc[nH]c12 [IU-4] |  |  |  | 5990 | 9110 | > 10000 |  |  | > 10000
COC(=O)c1cccc(Nc2nc(Nc3ccc(N4CCC(N5CCCC5)CC4)cc3OC)nc3cc[nH]c23)c1 [II-6] |  |  |  | ~7400 | 4960 | 6720 |  |  | ~8220
CNc1nc(Nc2ccc(N3CCC(O)CC3)cc2)nc2cc[nH]c12 [IQ-3] |  |  |  | > 10000 | > 10000 | > 10000 |  |  | > 10000
COC(=O)c1ccccc1Oc1nc(Nc2ccc(S(N)(=O)=O)cc2)nc2ccn(C)c12 [IIN-4] | > 10000 | > 10000 | > 10000 |  |  |  |  | > 10000 | 
CCOc1cc(N2CCC(O)CC2)ccc1Nc1nc(Nc2ccccc2S(=O)(=O)C(C)C)c2c(ccn2C)n1 [IID-6] | ~3000 | 1600 | ~3130 |  |  |  |  | > 10000 | 
CC(C)S(=O)(=O)c1ccccc1Nc1nc(Nc2cnn(C3CCN(C)CC3)c2)nc2cc[nH]c12 [ID-8] |  |  |  | 5680 | 5170 | > 10000 |  |  | > 10000
COc1cc(N2CCC(N3CCN(C)CC3)CC2)ccc1Nc1nc(Nc2ccccc2S(=O)(=O)C(C)C)c2c(ccn2C)n1 [IID-2] | 391 | 330 | 829 |  |  |  | good targeting selectivity | 2910 | 
